The text below walks through data of publication PMC9413440, “An Iterative Approach Guides Discovery of the FabI Inhibitor Fabimycin, a Late-Stage Antibiotic Candidate with In Vivo Efficacy against Drug-Resistant Gram-Negative Infections” (ACS Central Science, 2022).

As usually defined, the MIC is the lowest concentration found to suppress growth. The low end stands for greater potency, the high end for weaker potency.

One test concerns A. baumannii AR-0313. In words: MIC, broth microdilution (CLSI). It is filed as cell-based. The conditions noted are these: Acinetobacter baumannii, AR0313; A. baumannii AR-0313 clinical isolate; † = dose-independent trailing growth. The protocol: (§1) II. Materials and Methods for Biological Experiments
(§2) S. aureus ATCC 29213 and E. coli MG1655 were obtained from the American Type Culture Collection (ATCC). E. coli BW25113 and E. coli JW5503 were obtained from the Keio Collection. AR-bank strains were obtained from the Centers for Disease Control and Prevention and FDA Antibiotic Resistance Isolate Bank.
(§3) Antimicrobial susceptibility tests
(§4) Susceptibility testing was performed in biological triplicate, unless noted otherwise, using the micro-dilution broth method as outlined by the Clinical and Laboratory Standards Institute. Bacteria were cultured with cation-adjusted Mueller Hinton broth (Sigma Aldrich, catalogue number: 90922). […]
(§5) Error bars represent the standard error of the mean of three biological replicates. All compounds evaluated in biological assays were ≥95% pure.
A general note: Broth dilution looks for growth in wells or tubes with falling amounts of substance.

Another test concerns K. pneumoniae AR-0113. The experiment in a line: MIC, broth microdilution (CLSI). The conditions noted are these: Klebsiella pneumoniae, AR0113; K. pneumoniae AR-0113 clinical isolate. In kind it is cell-based. The protocol:
as §1, §2, §3, §4, §5

The next test has as its system K. pneumoniae BAA-2472. The experiment in a line: MIC, broth microdilution (CLSI). It is filed as cell-based. Particulars: Klebsiella pneumoniae, BAA2472. The protocol: as §1, §2, §3, §4
(§6) NH3: m/z 391.2 → 171.0. Fabimycin: m/z 405.3 → 145.3. Power analysis was not used to determine the number of replicates. Error bars represent the standard error of the mean of three biological replicates. All compounds evaluated in biological assays were ≥95% pure.

A further test relates to E. coli AR-0085. In words: MIC, broth microdilution (CLSI). The conditions noted are these: Escherichia coli, AR0085; E. coli AR-0085 clinical isolate. In kind it is cell-based. The protocol:
as §1, §2, §3, §4, §6

Another test relates to A. baumannii AR-0033. The experiment in a line: MIC, broth microdilution (CLSI). Particulars: Acinetobacter baumannii, AR0033; A. baumannii AR-0033 clinical isolate; † = dose-independent trailing growth. In kind it is cell-based. The protocol:
as §1, §2, §3, §4, §6

For the next test, the system named is S. aureus ATCC 29213. In words: MIC, broth microdilution (CLSI). It is filed as cell-based. Particulars: Staphylococcus aureus, ATCC29213; S. aureus 29213. The protocol:
as §1, §2, §3, §4, §6

Another test relates to K. pneumoniae AR-0066. In words: MIC, broth microdilution (CLSI). In kind it is cell-based. The conditions noted are these: Klebsiella pneumoniae, AR0066; K. pneumoniae AR-0066 clinical isolate. The protocol:
as §1, §2, §3, §4, §6

The next test relates to E. coli AR-0048. In words: MIC, broth microdilution (CLSI). In kind it is cell-based. Particulars: Escherichia coli, AR0048; E. coli AR-0048 clinical isolate. On the procedure: as §1, §2, §3, §4, §6
The next test relates to A. baumannii AR-0299. In words: MIC, broth microdilution (CLSI). Particulars: Acinetobacter baumannii, AR0299; A. baumannii AR-0299 clinical isolate; † = dose-independent trailing growth. In kind it is cell-based. On the procedure: as §1, §2, §3, §4, §6
The test system of the next test is K. pneumoniae AR-0560. The experiment in a line: MIC, broth microdilution (CLSI). In kind it is cell-based. The conditions noted are these: Klebsiella pneumoniae, AR0560; K. pneumoniae AR-0560 clinical isolate. The protocol:
as §1, §2, §3, §4, §6

The next test has as its system A. baumannii AR-0273. In words: MIC, broth microdilution (CLSI). It is filed as cell-based. The conditions noted are these: Acinetobacter baumannii, AR0273; A. baumannii AR-0273 clinical isolate. The protocol:
as §1, §2, §3, §4, §6

The next test deals with E. coli MG1655. The experiment in a line: MIC, broth microdilution (CLSI). It is filed as cell-based. Particulars: Escherichia coli. The protocol:
as §1, §2, §3, §4, §6

Another test has as its system E. coli ΔtolC (JW5503). The experiment in a line: MIC, broth microdilution (CLSI). It is filed as cell-based, Escherichia coli. On the procedure:
as §1, §2, §3, §4, §6

In a further test the target is T1, E. coli FabI (Escherichia coli, UniProt P0AEK4).
T1 construct: His(6) with TEV site (cleaved yes); made in house; host or cells: E. coli BL21(DE3)
In words: In vitro FabI enzymatic inhibition assay. In kind it is biochemical. The conditions noted are these: for Ki: EcFabI, Morrison's quadratic fit, 5 nM enzyme, read-out: Ki app. On the procedure: (§7) supplemented with 100 µg/mL ampicillin at 37°C until OD600 reached 0.6-0.7. The cells were induced with 1mM IPTG and incubated for 20 hours at 18°C and spun down at 8000 rpm for 15 minutes. Cell pellet was resuspended in the lysis buffer (50 mM Tris-HCl pH 8.0, 500 mM Na Cl, 20 mM imidazole, 10% glycerol, 0.5 mM TCEP, protease inhibitor and Lysonase) and passed through microfluidizer followed by centrifugation and filtration to remove cell debris. The clarified lysate was supplemented with 20 mM imidazole and passed over a HisTrap column (Cytiva) pre-equilibrated with the wash buffer (50 mM Tris-HCl pH 8.0, 500 mM NaCl, 20 mM imidazole, 10% glycerol, 0.5 mM TCEP). The column was washed with the wash buffer and eluted over a 20-500 mM imidazole gradient. The appropriate fractions were pooled, and the histidine tag was removed by TEV cleavage. The protein mixture was passed over a HisTrap column to separate the cleaved protein from the uncleaved ones. The cleaved protein was pooled and passed over an S75 size exclusion column (GE LifeSciences) pre-equilibrated with 50 mM Tris-HCl pH 8.0, 500 mM NaCl, 0.5 mM TCEP and 10% glycerol. Fractions containing pure protein were pooled, concentrated at 10 mg/mL and stored at -80°C. […]
(§8) In vitro FabI enzymatic inhibition assay
(§9) Recombinant E. coli and A. baummani FabI enzymes were used in a continuous NADH absorbance assay (20 µL in 384w format). Compounds and the Crotonyl-CoA substrate (Sigma–Aldrich 28007) were dispensed into a plate (GeinerBio-One 781101). The reaction was initiated by the addition of a reaction master mix solution containing enzyme and NADH (Sigma–Aldrich N8129) suspended in reaction buffer (50 mM HEPES pH 7.4, 150 mM NaCl, 1 mM EDTA, 0.01 mg/mL BSA, 0.01% Tween). Final concentrations were 5 nM enzyme, 150 μM Crotonyl-CoA, 380 μM NADH, 0.05% DMSO in 1x reaction buffer. After shaking for 5 seconds the reaction was monitored at NADH absorbance (340nm, 25°C) using a Molecular Devices SpectraMax M5 microplate reader. The linear portion of the progress curve was fit using plate-reader software. Percentage activity was calculated relative to DMSO only and no-substrate controls in each plate and the data were fit to Morrison’s quadratic using Graphpad Prism 9.3 to obtain apparent inhibition constant (Ki app) values. […]
(§10) 480 Real-Time PCR System as a function of a temperature ramp (25-95°C; 0.1°/s) and the Tm was calculated using the […]

Another test has as its target A. baumannii FabI (Acinetobacter baumannii, UniProt D0CAD5). In words: In vitro FabI enzymatic inhibition assay. In kind it is biochemical. Particulars: AbFabI; Morrison's quadratic fit; 5 nM enzyme; read-out: Ki app. The protocol:
as §7, §8, §9, §10

≈ marks a conversion by molar mass, not a printed value.

T1 sequence (P0AEK4 whole entry): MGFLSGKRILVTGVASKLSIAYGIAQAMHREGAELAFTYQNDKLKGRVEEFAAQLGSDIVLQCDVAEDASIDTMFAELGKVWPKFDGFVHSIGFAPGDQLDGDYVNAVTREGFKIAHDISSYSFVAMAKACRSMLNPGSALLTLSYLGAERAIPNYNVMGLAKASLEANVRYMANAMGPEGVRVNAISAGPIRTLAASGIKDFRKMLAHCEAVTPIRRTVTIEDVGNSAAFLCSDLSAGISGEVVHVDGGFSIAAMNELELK
Sequence of A. baumannii FabI (D0CAD5 entry or part of it): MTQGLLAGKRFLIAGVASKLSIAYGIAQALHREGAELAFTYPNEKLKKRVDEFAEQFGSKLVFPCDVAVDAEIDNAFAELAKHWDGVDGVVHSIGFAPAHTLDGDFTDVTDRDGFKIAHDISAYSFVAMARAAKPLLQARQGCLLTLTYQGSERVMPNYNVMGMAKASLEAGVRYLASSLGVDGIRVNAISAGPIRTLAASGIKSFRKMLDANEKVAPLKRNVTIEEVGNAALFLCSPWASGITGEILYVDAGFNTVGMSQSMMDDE

Turning to `Cc1c(CN(C)C(=O)/C=C/c2cnc3c(c2)CC[C@@H](N)C(=O)N3)oc2ccccc12` [(R)-7], the MIC with A. baumannii AR-0313 was over 128 µg/mL; against K. pneumoniae AR-0113, over 128 µg/mL; against K. pneumoniae BAA-2472, over 128 µg/mL; with E. coli AR-0085, 128 µg/mL (≈ 316 µM); against A. baumannii AR-0033, over 128 µg/mL; against S. aureus ATCC 29213, 0.125 µg/mL (≈ 0.309 µM). The MIC against K. pneumoniae AR-0066 is over 128 µg/mL; against E. coli AR-0048, 128 µg/mL (≈ 316 µM); in the test with A. baumannii AR-0299, over 128 µg/mL; in the test on K. pneumoniae AR-0560, over 128 µg/mL; against A. baumannii AR-0273, over 128 µg/mL; against E. coli MG1655, 64 µg/mL (≈ 158 µM). This compound gave an MIC with E. coli ΔtolC (JW5503) (Escherichia coli) of 0.5 µg/mL (≈ 1.24 µM). In addition, the Ki is 0.038 ± 0.004 µM at E. coli FabI and 0.109 ± 0.014 µM at A. baumannii FabI.

In the case of `Cc1c(CN(C)C(=O)/C=C/c2cnc3c(c2)CCCC(=O)N3)oc2ccccc12` [compound 10], the MIC against A. baumannii AR-0313 was 16 µg/mL (≈ 41.1 µM); in the test on K. pneumoniae AR-0113 it was 32 µg/mL (≈ 82.2 µM); against K. pneumoniae BAA-2472 it was 16 µg/mL (≈ 41.1 µM); against E. coli AR-0085 it was 8 µg/mL (≈ 20.5 µM); in the test with A. baumannii AR-0033, 16 µg/mL (≈ 41.1 µM); against S. aureus ATCC 29213, 0.002 µg/mL (≈ 0.00514 µM). Further, the MIC was 32 µg/mL (≈ 82.2 µM) in the test with K. pneumoniae AR-0066; 8 µg/mL (≈ 20.5 µM) against E. coli AR-0048; 16 µg/mL (≈ 41.1 µM) against A. baumannii AR-0299; over 32 µg/mL against K. pneumoniae AR-0560; 16 µg/mL (≈ 41.1 µM) against A. baumannii AR-0273; 8 µg/mL (≈ 20.5 µM) against E. coli MG1655. The compound further displayed an MIC against E. coli ΔtolC (JW5503) (Escherichia coli) of 0.031 µg/mL (≈ 0.0796 µM). Moreover, the Ki is 0.131 ± 0.022 µM at E. coli FabI and 0.487 ± 0.101 µM on A. baumannii FabI.

Regarding `Cc1c(CN(C)C(=O)/C=C/c2cnc3c(c2)CC[C@H](N)C(=O)N3)oc2ccccc12` [fabimycin], the MIC amounted to 4 µg/mL (≈ 9.89 µM) in the test with A. baumannii AR-0313; 4 µg/mL (≈ 9.89 µM) against K. pneumoniae AR-0113; 4 µg/mL (≈ 9.89 µM) with K. pneumoniae BAA-2472; 1 µg/mL (≈ 2.47 µM) against E. coli AR-0085; 4 µg/mL (≈ 9.89 µM) in the test with A. baumannii AR-0033; 0.004 µg/mL (≈ 0.00989 µM) in the test on S. aureus ATCC 29213. Besides, the MIC in the test on K. pneumoniae AR-0066 came to 4 µg/mL (≈ 9.89 µM); in the test with E. coli AR-0048 it was 2 µg/mL (≈ 4.94 µM); in the test with A. baumannii AR-0299, 2 µg/mL (≈ 4.94 µM); with K. pneumoniae AR-0560, 4 µg/mL (≈ 9.89 µM); against A. baumannii AR-0273, 4 µg/mL (≈ 9.89 µM); against E. coli MG1655 it was 2 µg/mL (≈ 4.94 µM). Moreover, the MIC in the test on E. coli ΔtolC (JW5503) (E. coli ΔtolC = JW5503, efflux-deficient) worked out at 0.016 µg/mL (≈ 0.0396 µM). In addition, the Ki at E. coli FabI amounted to 0.008 ± 0.002 µM; on A. baumannii FabI, 0.017 ± 0.003 µM. The “difference in potency between fabimycin and (R)-7 against purified E. coli FabI” value at E. coli FabI (fabimycin relative to (R)-7) worked out at 4.75 fold.
